US9464301B2, “Increased isoprene production using the archaeal lower mevalonate pathway” (Danisco US Inc., priority 2008, dated 2016)
“Also recorded” adds a separate entry of the source.

Experiments:
yeast mevalonate kinase = target: T1, yeast mevalonate kinase (Saccharomyces cerevisiae, UniProt P07277); assay type: biochemical; settings: for KMapp of yeast mevalonate kinase: other substrate saturating at 5 mM, 30° C.
T1 construct: 10xHis tag with factor Xa site (pET-16b leader); made in house; host or cells: E. coli BL21(DE3) pLysS
T1 sequence (P07277 1-443): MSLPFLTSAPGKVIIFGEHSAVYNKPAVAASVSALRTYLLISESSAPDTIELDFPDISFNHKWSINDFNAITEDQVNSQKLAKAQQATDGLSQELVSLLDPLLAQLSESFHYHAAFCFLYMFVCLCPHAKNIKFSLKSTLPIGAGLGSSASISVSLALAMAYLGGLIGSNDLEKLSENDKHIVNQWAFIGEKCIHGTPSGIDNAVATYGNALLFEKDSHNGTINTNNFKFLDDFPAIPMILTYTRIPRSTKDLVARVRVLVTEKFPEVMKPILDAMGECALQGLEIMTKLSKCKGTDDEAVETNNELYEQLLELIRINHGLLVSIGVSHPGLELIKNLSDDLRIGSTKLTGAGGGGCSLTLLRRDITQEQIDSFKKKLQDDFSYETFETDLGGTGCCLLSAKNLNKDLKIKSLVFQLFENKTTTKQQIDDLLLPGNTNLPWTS

[1] = target: T2, MVK from the archaeon Methanococcus jannaschii (Methanocaldococcus jannaschii, UniProt Q58487); settings: Huang et al. 1999; cited from earlier work
T2 sequence (Q58487 1-312): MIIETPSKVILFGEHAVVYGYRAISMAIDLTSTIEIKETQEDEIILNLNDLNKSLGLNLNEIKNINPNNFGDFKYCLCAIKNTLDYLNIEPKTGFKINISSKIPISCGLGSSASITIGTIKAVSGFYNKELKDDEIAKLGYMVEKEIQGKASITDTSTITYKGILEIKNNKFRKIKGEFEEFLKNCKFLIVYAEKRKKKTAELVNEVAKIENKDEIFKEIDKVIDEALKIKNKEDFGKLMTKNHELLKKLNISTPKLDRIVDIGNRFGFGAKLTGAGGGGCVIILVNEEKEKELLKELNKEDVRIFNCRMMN

human MVK polypeptide = human MVK polypeptide (Homo sapiens, UniProt Q03426); settings: reported; cited from earlier work
[2] = about 1 atmosphere and about 60° F.; cited from earlier work
M. mazei MVK = assay: Inhibition of MVK by diphosphomevalonate and IP, two enzyme system; assay type: biochemical, Methanosarcina mazei; settings: 1 μM MVK; for Inhibition of M. mazei MVK by isopentenyl monophosphate: 100 μM
From the text: This experiment investigates the inhibitory effect of diphosphomevalonate and […] (IP) on MVK activity using MVK enzymes from S. pneumoniae, yeast, and M. mazei, respectively. […] All chemical reagents were purchased from Sigma unless otherwise specified.

S. pneumoniae MVK = assay: Inhibition of MVK by diphosphomevalonate, two enzyme system (MVK plus PMK); assay type: biochemical, Streptococcus pneumoniae; settings: 1 μM MVK, 1 μM PMK, diphosphomevalonate formed in situ
Protocol: (§1) This experiment investigates the inhibitory effect of diphosphomevalonate and […] (IP) on MVK activity using MVK enzymes from S. pneumoniae, yeast, and M. mazei, respectively. […] All reactions were performed in 96-well plates and were monitored by absorbance at 386 nm on a Molecular Devices Spectramax 190 UV-Vis 96-well spectrophotometer. […] All chemical reagents were purchased from Sigma unless otherwise specified. Yeast and M. mazei MVK were obtained as described above and S. pneumoniae MVK and yeast phosphomevalonate kinase (PMK) were obtained as previously described (Andreassi et al., Biochemistry, 43:16461-66, 2004) from pDW02 in pET200D MVK (FIG. 142).

yeast MVK = target: T3, yeast MVK (Saccharomyces cerevisiae, UniProt P07277); assay: as above; assay type: biochemical; settings: 1 μM MVK, 1 μM PMK, diphosphomevalonate formed in situ
T3 construct: 10xHis tag with factor Xa site (pET-16b leader); made in house; host or cells: E. coli BL21(DE3) pLysS
T3 sequence (P07277 1-443): T1 sequence (P07277 1-443)
Protocol: as §1

[3] = Flammability modeling (CAFT) and testing of isoprene; assay type: physicochemical
From the text: Thus, computer modeling and experimental testing were used to determine the flammability limits of isoprene (such as isoprene in the presence of O2, N2, CO2, or any combination of two or more of the foregoing gases) in order to ensure process safety. The flammability envelope is characterized by the lower flammability limit (LFL), the upper flammability limit (UFL), the limiting oxygen concentration (LOC), and the limiting temperature. For a system to be flammable, a minimum amount of fuel (such as isoprene) must be in the presence of a minimum amount of oxidant, typically oxygen. The LFL is the minimum amount of isoprene that must be present to sustain burning, while the UFL is the maximum amount of isoprene that can be present. Above this limit, the mixture is fuel rich and the fraction of oxygen is too low to have a flammable mixture. The LOC indicates the minimum fraction of oxygen that must also be present to have a flammable mixture. […]
Calculated adiabatic flame temperatures (CAFT) along with a selected limit flame temperature for combustion propagation were used to determine the flammability envelope for isoprene. […]
The igniter was comprised of a 1.5 ohm nicrome coil and an AC voltage source on a timer circuit. Using an oscilloscope, it was determined that 34.4 VAC were delivered to the igniter for 3.2 seconds. […]

Sequence of human MVK polypeptide (Q03426 whole entry): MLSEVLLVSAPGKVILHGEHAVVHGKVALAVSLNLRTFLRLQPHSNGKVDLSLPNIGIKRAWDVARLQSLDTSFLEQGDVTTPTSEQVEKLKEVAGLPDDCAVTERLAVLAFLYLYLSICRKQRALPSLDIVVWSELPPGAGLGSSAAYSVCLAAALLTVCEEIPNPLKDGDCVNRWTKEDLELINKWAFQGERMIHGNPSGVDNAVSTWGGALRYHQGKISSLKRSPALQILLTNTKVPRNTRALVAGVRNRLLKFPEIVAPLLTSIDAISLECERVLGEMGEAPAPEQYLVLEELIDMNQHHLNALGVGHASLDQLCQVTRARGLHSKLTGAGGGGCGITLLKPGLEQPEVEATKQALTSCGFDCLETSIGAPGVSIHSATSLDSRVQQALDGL

Molecule: Nc1ncnc2c1ncn2[C@@H]1O[C@H](COP(=O)(O)OP(=O)(O)OP(=O)(O)O)[C@@H](O)[C@H]1O [ATP, adenosine triphosphate]
- KMapp of yeast mevalonate kinase (yeast mevalonate kinase): 714 ± 49 µM

Molecule: CC(C)=CCC/C(C)=C/COP(=O)(O)OP(=O)(O)O [GPP, geranyl diphosphate]
- Feedback inhibition of M. jannaschii MVK [1]: feedback inhibited
- Ki for human MVK polypeptide (human MVK polypeptide): nanomolar range

Molecule: CC(C)=CCC/C(C)=C/CC/C(C)=C/CO[P@@](=O)(O)OP(=O)(O)O (stereo in doubt) [FPP, farnesyl diphosphate]
- Ki for human MVK polypeptide (human MVK polypeptide): nanomolar range

Molecule: CCO [ethanol]
- LFL [2]: about 3.3 vol %
- LOC [2]: about 8.7 vol %

Molecule: CC(O)(CCO)CC(=O)O (stereo not shown) [mevalonate]
- KMapp of yeast mevalonate kinase (yeast mevalonate kinase): 131 ± 8 µM

Molecule: CC(C)=CCC/C(C)=C/CC/C(C)=C/CC/C(C)=C/COP(=O)(O)OP(=O)(O)O [GGPP, geranylgeranyl diphosphate]
- Ki for human MVK polypeptide (human MVK polypeptide): nanomolar range

Molecule: C=C(C)CCOP(=O)(O)O [IP, isopentenyl monophosphate]
- Inhibition of M. mazei MVK by isopentenyl monophosphate (M. mazei MVK): not inhibited

Molecule: C[C@@](O)(CCOP(=O)(O)OP(=O)(O)O)CC(=O)O [diphosphomevalonate]
- Inhibition of S. pneumoniae MVK by diphosphomevalonate (S. pneumoniae MVK): inhibited
- Inhibition of yeast MVK by diphosphomevalonate (yeast MVK): not inhibited; also recorded: Neither yeast MVK nor M. mazei MVK was inhibited
- Inhibition of M. mazei MVK by diphosphomevalonate (M. mazei MVK; PMK, diphosphomevalonate formed in situ): proceed to completion; also recorded: Neither yeast MVK nor M. mazei MVK was inhibited

Molecule: C=CC(=C)C [isoprene, 2-methyl-1,3-butadiene]
- limiting oxygen concentration (LOC) ([3]; isoprene, O2, N2, and CO2 mixture at 40° C. and 1 atmosphere): 9.5 vol %
- limiting temperature ([3]; lowest temperature at which combustion can propagate): about −54 °C

Molecule: C=C(C)CCOP(=O)(O)OP(=O)(O)O [IPP, isopentenyl diphosphate]
- Inhibition of M. mazei MVK by isopentenyl monophosphate (M. mazei MVK): not inhibited

B1: yeast mevalonate kinase: mevalonate kinase from Saccharomyces cerevisiae, expressed in E. coli and purified to >95% (protein, UniProt P07277 1-443, looked up)
Mevalonate kinase: T1 sequence (P07277 1-443)
- turnover number (kcat) (yeast mevalonate kinase; yeast mevalonate kinase): 38 ± 5 s⁻¹
